Laboratory results: patent US20200039970A1, “HYDANTOIN MODULATORS OF KV3 CHANNELS” (Autifony Therapeutics Limited, priority 2016, published 2020)

How the values were obtained:
[1] = biological target: T1, human Kv3.1 channels (hKv3.1) (Homo sapiens, UniProt P48547); experiment: IonWorks Quattro whole-cell current potentiation assay, hKv3.1 (Biological Example 1); format: cell-based; settings: recombinant cell assay, -15 mV voltage step; positive modulator = at least 20% of effect of 50 microM reference compound
T1 construct: expressed in transfected cells; host or cells: CHO/Gam/E1A-clone22 (CGE22) cells, CHO-K1-derived, transduced with BacMam pFBM/human Kv3.1
T1 sequence (P48547 1-511): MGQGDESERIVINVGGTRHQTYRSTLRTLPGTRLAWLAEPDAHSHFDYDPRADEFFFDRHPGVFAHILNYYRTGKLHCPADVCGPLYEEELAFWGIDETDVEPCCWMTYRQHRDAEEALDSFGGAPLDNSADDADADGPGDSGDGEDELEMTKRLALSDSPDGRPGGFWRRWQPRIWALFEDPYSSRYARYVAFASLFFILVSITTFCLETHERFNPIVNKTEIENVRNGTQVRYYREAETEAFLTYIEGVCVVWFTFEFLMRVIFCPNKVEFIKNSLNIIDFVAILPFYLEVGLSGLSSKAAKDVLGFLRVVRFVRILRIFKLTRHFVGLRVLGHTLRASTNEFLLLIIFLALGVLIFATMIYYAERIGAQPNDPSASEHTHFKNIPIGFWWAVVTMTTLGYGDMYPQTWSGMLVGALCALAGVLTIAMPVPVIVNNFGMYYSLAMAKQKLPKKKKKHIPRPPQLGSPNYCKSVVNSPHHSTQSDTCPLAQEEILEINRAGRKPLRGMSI
From the text: (§1) The ability of the compound of the invention to modulate the voltage-gated potassium channel subtypes Kv3.2 or Kv3.1 may be determined using the following assay. Analogous methods may be used to investigate the ability of the compound of the invention to modulate other channel subtypes, including Kv3.3 and Kv3.4.
To assess compound effects on human Kv3.1 channels (hKv3.1), CHO/Gam/E1A-clone22 alias CGE22 cells were transduced using a hKv3.1 BacMam reagent. This cell line was designed to be an improved CHO-K1-based host for enhanced recombinant protein expression as compared to wild type CHO-K1.
The cell line was generated following the transduction of CHO-K1 cells with a BacMam virus expressing the Adenovirus-Gam1 protein and selection with Geneticin-G418, to generate a stable cell line, CHO/Gam-A3. […]
(§2) Experiments were conducted at room temperature using IonWorks Quattro™ planar array electrophysiology technology (Molecular Devices Corp.) with PatchPlate™ PPC. […] Planar electrode hole resistances(Rp) were determined by applying a 10 mV voltage step across each well. […] Test pulses protocol may be performed in the absence (pre-read) and presence (post-read) of the test compound. Pre- and post-reads may be separated by the compound addition followed by a 3 minute incubation. […]

[2] = biological target: T2, human Kv3.2 channels (hKv3.2) (Homo sapiens, UniProt Q96PR1); experiment: IonWorks Quattro whole-cell current potentiation assay, hKv3.2 (Biological Example 1); format: cell-based; settings: recombinant cell assay, -15 mV voltage step; positive modulator = at least 20% of effect of 50 microM reference compound
T2 construct: expressed in transfected cells
T2 sequence (Q96PR1 1-638): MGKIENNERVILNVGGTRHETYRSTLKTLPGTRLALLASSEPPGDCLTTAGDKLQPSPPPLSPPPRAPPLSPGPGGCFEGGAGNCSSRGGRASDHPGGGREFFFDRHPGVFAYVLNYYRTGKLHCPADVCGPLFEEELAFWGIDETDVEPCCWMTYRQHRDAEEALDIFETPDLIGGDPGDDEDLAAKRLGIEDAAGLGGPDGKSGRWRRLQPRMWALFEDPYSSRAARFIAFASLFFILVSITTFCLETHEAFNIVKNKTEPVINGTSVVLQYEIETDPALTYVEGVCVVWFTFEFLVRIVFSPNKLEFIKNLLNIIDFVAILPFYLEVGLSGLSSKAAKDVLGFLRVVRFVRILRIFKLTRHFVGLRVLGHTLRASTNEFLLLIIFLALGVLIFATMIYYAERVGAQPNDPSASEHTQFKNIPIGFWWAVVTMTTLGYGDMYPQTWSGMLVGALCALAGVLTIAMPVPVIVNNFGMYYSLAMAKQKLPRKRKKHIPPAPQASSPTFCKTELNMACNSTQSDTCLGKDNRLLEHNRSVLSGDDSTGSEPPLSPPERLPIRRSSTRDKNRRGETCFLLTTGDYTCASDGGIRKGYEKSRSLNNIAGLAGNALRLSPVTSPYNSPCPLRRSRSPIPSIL
From the text: as §1
To assess compound effects on human Kv3.2 channels (hKv3.2), a stable cell line expressing hKv3.2 was created by transfecting Chinese Hamster Ovary (CHO)-K1 cells with a pClH5-hKv3.2 vector. Cells were cultured in DMEM/F12 medium supplemented by 10% Foetal Bovine Serum, 1× non-essential amino acids (Invitrogen) and 500 ug/ml of Hygromycin-B (Invitrogen). Cells were grown and maintained at 37° C. in a humidified environment containing 5% CO2 in air.
The day of the experiment, cells were removed from the incubator and the culture medium removed. […]
as §2

[3] = Determination of in vivo pharmacokinetic parameters (Biological Example 3); design: species or system rat; settings: for Tmax: Median
Protocol: […] After oral administration, blood samples are collected under deep Isofluorane anesthesia from the portal vein and heart of each rat (1 rat per time point). After intravenous administration, serial blood samples are collected from the lateral tail vein of each rat. A further group of rats (n=1 per test compound) receive a single intravenous administration of the PgP transport inhibitor, Elacridar (3 mg/kg) shortly before the oral administration of the test compound at 1 mg/kg, as above. Blood and brain samples ar collected at a single timepoint of 0.5 h after dose administration for these animals. In all cases, blood samples are collected into potassium EDTA tubes.
Blood and brain samples can be assayed for test compound concentration using a method based on protein precipitation with acetonitrile followed by HPLC/MS-MS analysis with an optimized analytical method.
The concentrations of test compound in blood (expressed as ng/ml) and brain (expressed as ng/g) at the different time points following either oral or intravenous dosing are analysed using a non-compartmental pharmacokinetic model using WinNonLin Professional version 4.1. The following parameters are derived:
Intravenous dosing: Maximum concentration over time (Cmax), integrated concentration over time (AUC), clearance (Clb), volume of distribution (Vss) and half-life (t1/2).
Oral dosing: Cmax, time of maximum concentration (Tmax), AUC, bioavailability (F %), fraction absorbed (Fa %), blood to brain ratio (AUC BB), and Fold-change in AUC BB in the presence of Elacridar.

[4] = male, rat, whole blood, Blood, IV 1 mg/kg, Mean
[5] = male, rat, whole blood, Blood, PO 3 mg/kg, Mean

- modulation of Kv3.1 channels (whole-cell currents) [1]: positive modulators
- modulation of Kv3.2 channels (whole-cell currents) [2]: positive modulators
- Bioavailability (%) Using AUCinf ([3]; Blood, PO 3 mg/kg vs IV 1 mg/kg): 138%
- availability ([3]; in vivo pharmacokinetics): good availability
- AUC(0-inf) [3, 4]: 353 ng·h/mL
- Cmax [3, 4]: 904 ng/mL
- clearance [3, 4]: 47.6 mL/min/kg
- half-life [3, 4]: 15.6 min
- Vd ([3]; male, rat, whole blood, Blood, IV 1 mg/kg, Mean, read-out: Vdss): 1 L/kg
- Tmax ([3]; male, rat, whole blood, Blood, IV 1 mg/kg): 4.98 min
- AUC(0-inf) [3, 5]: 1440 ng·h/mL
- Cmax [3, 5]: 1660 ng/mL
- half-life [3, 5]: 24.6 min
- Tmax ([3]; male, rat, whole blood, Blood, PO 3 mg/kg): 15 min
Structure (SMILES): CC[C@H]1NC(=O)N(c2ccc(Oc3ccc(C)c4c3C3(CC3)CO4)cn2)C1=O [compound of the invention]
